Assay results published in ChEMBL document CHEMBL1147284, “Alkaloids from the Leaves of Prosopis juliflora” (J Nat Prod, 1989).
The source made the active and inactive calls.

How the values were obtained:
Type in all cases: functional, organism-based
Staphylococcus aureus = assay: Antibacterial activity against Staphylococcus aureus B827 after 24 hrs
Pseudomonas aeruginosa = assay: Antibacterial activity against Pseudomonas aeruginosa PAO1 HER 1018 after 24 hrs
Klebsiella pneumoniae = assay: Antibacterial activity against Klebsiella pneumoniae C3 HER 1111 after 24 hrs
Escherichia coli [1] = assay: Antibacterial activity against Escherichia coli K125 HER 1037 after 24 hrs
Shigella sonnei = assay: Antibacterial activity against Shigella sonnei YER HER 1048 after 24 hrs
Escherichia coli [2] = assay: Antibacterial activity against Escherichia coli 11303 HER 1024 after 24 hrs

Measured: Activity

C[C@@H]1N[C@H](CCCCCCCCCCc2cc(CCCCCCCCC[C@@H]3CC[C@H](O)[C@H](C)N3)c[n+]3c2C=CC3)CC[C@@H]1O
active: all assays above
